Measurements as given in patent publication US20240150370A1, “BICYCLIC PYRIDINE DERIVATIVE” (Sumitomo Pharma Co., Ltd., priority 0001, published 2024).
Structures can show the parent of a compound that is named as a salt. Where two headings read alike, the source gives them in different places.

Target: human TAAR1 receptor (Homo sapiens (Human), UniProt Q96RJ0)
Test: Evaluation of agonist activity on human TAAR1 receptor (cAMP assay)
Format: cell-based
Conditions: for activation at 0.1 µM / activation at 1 µM / activation at 10 µM: CHO, 0.5 h, read-out: TAAR1 agonist activity at each concentration (%)
Procedure: TAAR1 is a G protein-coupled receptor that binds to G proteins (Gas), and activation of the TAAR1 receptor by agonists induces an increase in intracellular cAMP levels. Therefore, the agonist activity of the sample on the human TAAR1 receptor was evaluated using the cAMP assay method.
cAMP Hunter™ CHO-K1 TAAR1 Gs Cell Line, a cell expressing human TAAR1 receptor, was purchased. Human TAAR1-expressing CHO cells were seeded in a 96-well plate, and after culturing for 24 hours, a sample dissolved in DMSO was added and incubated at 37° C. for 30 minutes. A sample for cAMP measurement was prepared according to the cAMPHiRange kit protocol. The amount of cAMP produced by the sample was measured by time-resolved fluorescence using EnVision (excitation wavelength: 330 nm, fluorescence wavelength […]/665 nm).
Sample %=100×{(Csamp)−(Cblank)}/{(Ctyramine)−(Cblank)} • Csamp: count of sample, Ctyramine: count of 100 μM tyramine, Cblank: count of blank

[1] = 100 nM, cAMP in human TAAR1-expressing CHO cells, relative to 100 μM tyramine
[2] = 1000 nM, cAMP in human TAAR1-expressing CHO cells, relative to 100 μM tyramine
[3] = 10000 nM, cAMP in human TAAR1-expressing CHO cells, relative to 100 μM tyramine

human TAAR1 receptor, sequence (Q96RJ0 whole entry): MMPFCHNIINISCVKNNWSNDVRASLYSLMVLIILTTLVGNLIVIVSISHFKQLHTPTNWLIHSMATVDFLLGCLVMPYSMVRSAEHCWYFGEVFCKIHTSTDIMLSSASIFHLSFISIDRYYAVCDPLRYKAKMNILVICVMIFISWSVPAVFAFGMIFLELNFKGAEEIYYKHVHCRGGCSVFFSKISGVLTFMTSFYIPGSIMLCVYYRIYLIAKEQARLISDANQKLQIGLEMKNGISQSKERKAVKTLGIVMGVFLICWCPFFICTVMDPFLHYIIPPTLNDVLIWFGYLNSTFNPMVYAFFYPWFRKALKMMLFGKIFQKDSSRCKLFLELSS

| SMILES | activation at 0.1 µM [1] | activation at 1 µM [2] | activation at 10 µM [3] | further results |
| --- | --- | --- | --- | --- |
| CC[C@H]1Oc2cccnc2[C@@H]1CN (stereo in doubt) [Example 43, rel-1-[(2R,3S)-2-ethyl-2,3-dihydrofuro[3,2-b]pyridin-3-yl]methanamine dihydrochloride] | 0% | 0% | 7% | – |
| [2H][C@]1(C)Oc2cccnc2[C@@H]1CN (stereo in doubt) [Example 57] | 32% | 72% | 79% | – |
| [2H][C@@]1(C)Oc2cccnc2[C@H]1CN (stereo in doubt) [Example 94, rel-1-[(2S,3R)-2-methyl(2-^2H)-2,3-dihydrofuro[3,2-b]pyridin-3-yl]methanamine dihydrochloride] | 1% | 4% | 28% | – |
| NCC1CSc2cccnc21 (stereo not drawn) [Example 10] | 18% | 66% | 91% | – |
| Cc1ccc2c(n1)[C@@H](CN)C[C@@H](C)O2 [Example 17] | 0% | 4% | 25% | – |
| C[C@@H]1Oc2cccnc2[C@H]1CN [Example 19] | 2% | 13% | 51% | – |
| C[C@@H]1Oc2cccnc2[C@@H]1CN [Example 20] | 33% | 88% | 107% | – |
| Cc1cnc2c(c1)O[C@H](C)[C@H]2CN [Example 28] | 7% | 38% | 71% | – |
| C[C@H]1Oc2ccc(C(F)(F)F)nc2[C@@H]1CN [Example 30] | 2% | 18% | 63% | – |
| C[C@H]1Oc2cc(C(F)(F)F)cnc2[C@@H]1CN [Example 31] | 1% | 3% | 12% | – |
| C[C@@H]1C[C@H](CN)c2ncc(F)cc2O1 [Example 52] | 1% | 8% | 48% | – |
| CC1(C)COc2cccnc2C1CN (stereo not drawn) [Example 53] | – | – | – | activation at 0.1 µM: 0%; activation at 1 µM: 3%; activation at 10 µM: 18% |
| C[C@H]1Oc2cccnc2[C@@H]1C(C)(C)N [Example 54] | 15% | 63% | 94% | – |
| C[C@H](N)[C@H]1c2ncccc2O[C@@H]1C [Example 55] | – | – | – | TAAR1 agonist activity at each concentration (%) [1]: 31%; TAAR1 agonist activity at each concentration (%) [2]: 75%; TAAR1 agonist activity at each concentration (%) [3]: 87% |
| C[C@@H](N)[C@H]1c2ncccc2O[C@@H]1C [Example 56] | – | – | – | TAAR1 agonist activity at each concentration (%) [1]: 23%; TAAR1 agonist activity at each concentration (%) [2]: 67%; TAAR1 agonist activity at each concentration (%) [3]: 82% |
| C[C@H]1Oc2c(F)ccnc2[C@@H]1CN [Example 59] | 19% | 65% | 84% | – |
| C[C@@H]1C[C@@H](CN)c2ncc(F)cc2O1 [Example 66] | 21% | 66% | 82% | – |
| NCC1CCOc2ccc(C(F)(F)F)nc21 (stereo not drawn) [Example 67] | 1% | 10% | 39% | – |
| NCC1CCNc2cccnc21 (stereo not drawn) [Example 68] | 3% | 23% | 68% | – |
| NCC1c2ncccc2OCC12CC2 (stereo not drawn) [Example 69] | 4% | 30% | 62% | – |
| Cc1ccnc2c1OCCC2CN (stereo not drawn) [Example 70] | 0% | 23% | 57% | – |
| C=CCNC[C@H]1c2ncccc2O[C@@H]1C [Example 71] | 0% | 6% | 29% | – |
| CCCNC[C@H]1c2ncccc2O[C@@H]1C [Example 72] | 0% | 4% | 23% | – |
| COCCNC[C@H]1c2ncccc2O[C@@H]1C [Example 73] | 0% | 9% | 40% | – |
